# Experimental data from patent US9624214B2, “Amino-substituted imidazo[1,2-a]pyridinecarboxamides and their use” (BAYER PHARMA AKTIENGESELLSCHAFT, priority 2012, dated 2017).
# Biological target: T1, recombinant guanylate cyclase reporter cell line (Rattus norvegicus, UniProt P19686+P20595)
# T1 construct: expressed in transfected cells
# T1 sequence (P20595 1-619): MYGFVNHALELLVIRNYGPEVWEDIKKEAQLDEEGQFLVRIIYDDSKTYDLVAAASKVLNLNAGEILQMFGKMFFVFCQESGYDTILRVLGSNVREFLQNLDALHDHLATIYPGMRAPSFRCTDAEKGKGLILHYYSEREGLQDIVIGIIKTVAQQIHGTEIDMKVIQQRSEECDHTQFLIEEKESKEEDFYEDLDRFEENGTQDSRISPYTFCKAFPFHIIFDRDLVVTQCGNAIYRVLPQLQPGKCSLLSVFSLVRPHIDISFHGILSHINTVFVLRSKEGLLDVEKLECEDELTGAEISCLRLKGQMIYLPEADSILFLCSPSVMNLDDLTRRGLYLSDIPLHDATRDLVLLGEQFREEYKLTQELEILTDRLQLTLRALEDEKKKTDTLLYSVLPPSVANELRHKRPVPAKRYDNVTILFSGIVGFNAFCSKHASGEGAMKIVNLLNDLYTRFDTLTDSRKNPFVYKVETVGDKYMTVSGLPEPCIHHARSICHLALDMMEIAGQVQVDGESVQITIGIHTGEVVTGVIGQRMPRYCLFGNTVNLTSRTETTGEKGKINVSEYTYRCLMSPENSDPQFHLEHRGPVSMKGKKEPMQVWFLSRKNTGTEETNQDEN
# T1 sequence (P19686 1-690): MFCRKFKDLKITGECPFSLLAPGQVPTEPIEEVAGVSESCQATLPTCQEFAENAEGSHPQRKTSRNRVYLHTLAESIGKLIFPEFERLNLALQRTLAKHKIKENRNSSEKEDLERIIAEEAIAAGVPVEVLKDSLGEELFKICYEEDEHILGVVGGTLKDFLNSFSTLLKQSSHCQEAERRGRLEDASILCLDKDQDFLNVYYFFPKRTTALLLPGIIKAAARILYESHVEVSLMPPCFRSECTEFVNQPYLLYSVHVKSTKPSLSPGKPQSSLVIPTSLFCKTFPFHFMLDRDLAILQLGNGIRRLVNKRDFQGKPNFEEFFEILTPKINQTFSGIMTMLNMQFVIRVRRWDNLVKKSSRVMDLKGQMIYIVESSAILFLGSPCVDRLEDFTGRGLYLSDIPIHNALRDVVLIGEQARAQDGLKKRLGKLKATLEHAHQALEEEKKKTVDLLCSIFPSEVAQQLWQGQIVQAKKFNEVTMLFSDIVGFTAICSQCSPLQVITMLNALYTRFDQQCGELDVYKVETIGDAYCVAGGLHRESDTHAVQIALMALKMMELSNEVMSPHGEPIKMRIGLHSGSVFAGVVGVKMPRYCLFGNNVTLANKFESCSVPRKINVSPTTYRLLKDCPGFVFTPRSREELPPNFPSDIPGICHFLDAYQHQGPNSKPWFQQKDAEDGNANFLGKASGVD
# Experiment: B-2. Action on recombinant guanylate cyclase reporter cell line
# Assay type: cell-based
# Conditions: MEC = minimal effective concentration; in some cases mean values from individual determinations
# Description: B-2. Action on Recombinant Guanylate Cyclase Reporter Cell Line
# The cellular action of the compounds according to the invention is determined on a recombinant guanylate cyclase reporter cell line, as described in F. Wunder et al., Anal. Biochem. 339, 104-112 (2005).
# Representative MEC values (MEC=minimal effective concentration) for the compounds according to the invention are shown in the following table (in some cases as mean values obtained from individual determinations): […]
row,Structure (SMILES),MEC [µM]
1,"Cc1cc(OCc2c(F)cccc2F)c2nc(C)c(C(=O)NC(C)C3CCN(C)CC3)n2c1 (racemic) [Example 77, rac-8-[(2,6-difluorobenzyl)oxy]-2,6-dimethyl-N-[1-(1-methylpiperidin-4-yl)ethyl]imidazo[1,2-a]-pyridine-3-carboxamide]",1.00
2,"Cc1nc2c(OCc3c(F)cccc3F)cc(Cl)cn2c1C(=O)NC(C)C1CCN(C)CC1 (racemic) [Example 78, rac-6-chloro-8-[(2,6-difluorobenzyl)oxy]-2-methyl-N-[1-(1-methylpiperidin-4-yl)ethyl]-imidazo[1,2-a]pyridine-3-carboxamide]",1.00
3,"Cc1nc2c(OCc3c(F)cccc3F)cccn2c1C(=O)NCC1NCCc2ccccc21 (racemic) [Example 80, rac-8-[(2,6-difluorobenzyl)oxy]-2-methyl-N-(1,2,3,4-tetrahydroisoquinolin-1-ylmethyl)-imidazo[1,2-a]pyridine-3-carboxamide]",1.00
4,"Cc1nc2c(OCc3c(F)cccc3F)cccn2c1C(=O)NC1CCN(Cc2ccccc2)C1 (racemic) [Example 85, rac-N-(1-benzylpyrrolidin-3-yl)-8-[(2,6-difluoro-benzyl)oxy]-2-methylimidazo[1,2-a]-pyridine-3-carboxamide]",1.00
5,"Cc1nc2c(OCc3c(F)cccc3F)cc(Cl)cn2c1C(=O)NCC1CCCCN1 (racemic) [Example 118, rac-6-chloro-8-[(2,6-difluorobenzyl)oxy]-2-methyl-N-(piperidin-2-ylmethyl)imidazo[1,2-a]-pyridine-3-carboxamide]",1.00
6,"Cc1nc2c(OCc3c(F)cccc3F)cccn2c1C(=O)NC(CN1CCOCC1)c1ccccc1 (racemic) [Example 134, rac-8-[(2,6-difluorobenzyl)oxy]-2-methyl-N-[2-(morpholin-4-yl)-1-phenylethyl]imidazo[1,2-a] - pyridine-3-carboxamide]",3.00
7,"Cc1cc(OCc2c(F)cccc2F)c2nc(C)c(C(=O)NCCNC(C)C)n2c1 (racemic) [Example 135, rac-8-[(2,6-difluorobenzyl)oxy]-N-[2-(isopropylamino)ethyl]-2,6-dimethylimidazo[1,2-a]pyridine-3-carboxamide]",1.00
8,"Cc1cc(OCc2c(F)cccc2F)c2nc(C)c(C(=O)NCC(C)N3CCOCC3)n2c1 (racemic) [Example 138, rac-8-[(2,6-difluorobenzyl)oxy]-2,6-dimethyl-N-[2-(morpholin-4-yl)propyl]imidazo[1,2-a]-pyridine-3-carboxamide]",0.30
9,"CCC(C)(N)CNC(=O)c1c(C)nc2c(OCc3c(F)cccc3F)cc(Cl)cn12 (racemic) [Example 157, rac-N-(2-amino-2-methylbutyl)-6-chloro-8-[(2,6-difluorobenzyl)oxy]-2-methylimidazo[1,2-a]-pyridine-3-carboxamide]",0.30
10,"COCC(C)(N)CNC(=O)c1c(C)nc2c(OCc3c(F)cccc3F)cc(Cl)cn12 (racemic) [Example 159, rac-N-(2-amino-3-methoxy-2-methylpropyl)-6-chloro-8-[(2,6-difluorobenzyl)oxy]-2-methylimidazo[1,2-a]pyridine-3-carboxamide]",0.30
11,"COCC(C)(N)CNC(=O)c1c(C)nc2c(OCc3c(F)cccc3F)cc(C)cn12 (racemic) [Example 166, rac-N-(2-amino-3-methoxy-2-methylpropyl)-8-[(2,6-difluorobenzyl)oxy]-2,6-dimethylimidazo[1,2-a]pyridine-3-carboxamide]",0.30
12,"Cc1cc(OCc2c(F)cccc2F)c2nc(C)c(C(=O)NCC(N)COC(C)C)n2c1 (racemic) [Example 206, rac-N-(2-Amino-3-isopropoxypropyl)-8-[(2,6-difluorobenzyl)oxy]-2,6-dimethylimidazo[1,2-a]-pyridine-3-carboxamide]",0.30
13,"Cc1nc2c(OCc3c(F)cccc3F)cc(Cl)cn2c1C(=O)NCC(N)COC(C)C (racemic) [Example 217, rac-N-(2-Amino-3-isopropoxypropyl)-6-chloro-8-[(2,6-difluorobenzyl)oxy]-2-methylimidazo[1,2-a]pyridine-3-carboxamide]",1.00
14,"Cc1cc(OCc2c(F)cccc2F)c2nc(C)c(C(=O)NCC(C)(N)CC(C)C)n2c1 (racemic) [Example 218, rac-N-(2-Amino-2,4-dimethylpentyl)-8-[(2,6-difluorobenzyl)oxy]-2,6-dimethylimidazo[1,2-a]-pyridine-3-carboxamide]",0.10

# Next, values leading:
row,MEC [µM],Structure (SMILES)
1,1.00,"Cc1nc2c(OCc3c(F)cccc3F)cccn2c1C(=O)NC1CCCN(C)C1 (racemic) [Example 84, rac-8-[(2,6-difluorobenzyl)oxy]-2-methyl-N-(1-methylpiperidin-3-yl)imidazo[1,2-a]-pyridine-3-carboxamide]"
2,1.00,"Cc1nc2c(OCc3c(F)cccc3F)cccn2c1C(=O)NC12CNCCC1C2 (racemic) [Example 125, rac-N-(3-Azabicyclo[4.1.0]hept-1-yl)-8-[(2,6-difluorobenzyl)oxy]-2-methylimidazo[1,2-a]-pyridine-3-carboxamide]"
3,1.00,"Cc1nc2c(OCc3c(F)cccc3F)cccn2c1C(=O)NCC(C)N1CCOCC1 (racemic) [Example 132, rac-8-[(2,6-difluorobenzyl)oxy]-2-methyl-N-[2-(morpholin-4-yl)propyl]imidazo[1,2-a]pyridine-3-carboxamide]"
4,1.00,"Cc1nc2c(OCc3c(F)cccc3F)cccn2c1C(=O)NCC(C(C)C)N(C)C (racemic) [Example 142, rac-8-[(2,6-difluorobenzyl)oxy]-N-[2-(dimethyl-amino)-3-methylbutyl]-2-methylimidazo[1,2-a]-pyridine-3-carboxamide]"
5,0.30,"Cc1nc2c(OCc3c(F)cccc3F)cc(Cl)cn2c1C(=O)NCC(N)CC(F)(F)F (racemic) [Example 147, rac-N-(2-amino-4,4,4-trifluorobutyl)-6-chloro-8-[(2,6-difluorobenzyl)oxy]-2-methylimidazo[1,2-a]pyridine-3-carboxamide]"
6,0.10,"Cc1nc2c(OCc3c(F)cccc3F)cccn2c1C(=O)NCC(C)(N)CC(C)C (racemic) [Example 202, rac-N-(2-Amino-2,4-dimethylpentyl)-8-[(2,6-difluorobenzyl)oxy]-2-methylimidazo[1,2-a]pyridine-3-carboxamide]"
7,0.30,"Cc1nc2c(OCc3c(F)cccc3F)cccn2c1C(=O)NCC(N)COC(C)C (racemic) [Example 205, rac-N-(2-Amino-3-isopropoxypropyl)-8-[(2,6-difluorobenzyl)oxy]-2-methylimidazo[1,2-a]-pyridine-3-carboxamide]"
8,1.00,"Cc1nc2c(OCc3c(F)cccc3F)cccn2c1C(=O)NCC(N)C(F)(F)F (racemic) [Example 207, rac-N-(2-Amino-3,3,3-trifluoropropyl)-8-[(2,6-difluorobenzyl)oxy]-2-methylimidazo[1,2-a]-pyridine-3-carboxamide]"
9,1.00,"COCC(C)(N)CNC(=O)c1c(C)nc2c(OCc3c(F)cccc3F)cccn12 (racemic) [Example 213, rac-N-(2-Amino-3-methoxy-2-methylpropyl)-8-[(2,6-difluorobenzyl)oxy]-2-methylimidazo[1,2-a]-pyridine-3-carboxamide]"
